From patent US20210292710A1, “METHOD FOR ENHANCING IMMUNE FUNCTION OF IMMUNE CELL AND IMMUNE CELL LINE PRODUCED USING THE SAME” (INDUSTRY-ACADEMIC COOPERATION FOUNDATION, YONSEI UNIVERSITY, priority 2020, published 2021)

Legend:
GLUT1 [1] = experiment: GLUT1 protein expression level of T cell; assay type: cell-based, mouse; settings: CD3+ T cells activated 72 hours with anti-CD3 and anti-CD28 beads
Description: Thus, referring to FIG. 4B, the results of mRNA expression of enzymes involved in glycolysis of T cells due to PI3K inhibitor treatment are shown. In this connection, in order to identify enzymes involved in glycolysis of T cells due to PI3K inhibitor treatment, the CD3+ T cells obtained in FIG. 2 are used. Furthermore, the obtained CD3+ T cell is activated for 72 hours using anti-CD3 and anti-CD28 beads to identify mRNA expression of enzymes involved in glycolysis. In this connection, CD3 secretes cytokine as a protein immunomodulator, and CD28 inhibits apoptosis. Only CD3-activated T cells may lead to apoptosis. Therefore, both CD3 and CD28 signals are used to increase T cell function and survival. Furthermore, referring to FIG. 5A, the result of GLUT1 protein expression level of T cell due to PI3K inhibitor treatment is shown. In this connection, T cell is treated in the same method as in FIG. 4B.

[2] = test system: lung-cancer cell line KLN205; experiment: Anti-cancer effect (tumor size) in lung-cancer cell line KLN205; assay type: in vivo
Description: Referring to FIG. 10A, the results of the anti-cancer effect against the lung-cancer cell line KLN205 due to the PI3K inhibitor treatment are shown. When the cell is treated with the vehicle as a control, the tumor size rapidly increases as the treatment days increase, and then the tumor size on the 15th day is 400 to 500 mm^3. However, when the cell is treated with the PI3K inhibitor, the tumor size is reduced compared to the control. More specifically, when the cell is treated with the PI3K inhibitor BKM 120 at 35 mpk, the tumor size on the 15th day is 200 to 250 mm^3. When the cell is treated with BKM 120 at 50 mpk, the tumor size on day 15 is found to be 90 to 100 mm^3.

AKT = AKT expression in T cells due to PI3K inhibitor and mTORC1 inhibitor treatment; assay type: cell-based; settings: RAD001 as mTORC1 inhibitor, p<0.05
Excerpt: Furthermore, referring to FIG. 8, AKT and GLUT1 expression levels in T cells due to PI3K inhibitor and mTORC1 inhibitor treatment are shown. In this connection, RAD001 is used as a mTORC1 inhibitor. First, referring to (a) of FIG. 8, AKT expression levels in T cells due to PI3K inhibitor and mTORC1 inhibitor treatment are shown. […] This may mean that when mTORC1 is inhibited, AKT expression is reduced, and thus mTORC1 is an important signal capable of rebounding AKT expression.

GLUT1 [3] = experiment: GLUT1 expression in T cells due to PI3K inhibitor and mTORC1 inhibitor treatment; assay type: cell-based; settings: RAD001 as mTORC1 inhibitor, p<0.05
Excerpt: Furthermore, referring to FIG. 8, AKT and GLUT1 expression levels in T cells due to PI3K inhibitor and mTORC1 inhibitor treatment are shown. In this connection, RAD001 is used as a mTORC1 inhibitor. Furthermore, referring to (b) of FIG. 8, the GLUT1 expression level in T cells due to PI3K inhibitor and mTORC1 inhibitor treatment is shown.

T cells = experiment: Extracellular acidification rate (ECAR) of T cells; assay type: cell-based, mouse
Description: Further, referring to FIG. 5B, the extracellular acidification rate (ECAR) of T cells due to PI3K inhibitor treatment is shown. In this connection, to measure the extracellular acidification rate, the T cell used in FIG. 5A is used, and 1×10^5 T cells are used. Furthermore, the extracellular acidification rate refers to a measurement of glucose degradation via a change in pH resulting from lactate secretion in the medium. In this connection, as the oligomycin is injected to inhibit mitochondrial metabolism, T cells must produce ATP using only glycolysis. Thus, the extracellular acidification rate in phase 3 may mean pure glycolysis capacity. In this connection, 2DG is a molecule in which the 2-hydroxyl group of glucose is replaced with hydrogen and thus glucose may not be degraded. Furthermore, when the T cell is treated with 2DG, the extracellular acdification rate may be controlled in an upstream phase of glucose metabolism. Thus, the extracellular acidification rate in phase 4 may refer to the glucose reserve in the cell.

[4] = test system: lung-cancer cell line KLN205; experiment: Percentage of immune cells relative to lung-cancer cell line KLN205; assay type: in vivo
Excerpt: Referring to FIG. 10B, the percentage of immune cells relative to the lung-cancer cell line KLN205 due to PI3K inhibitor treatment is shown. Referring first to FIG. 10B (a), the percentage of CD3+ CD8+ T cells relative to the lung-cancer cell line KLN205 due to PI3K inhibitor treatment is shown. Next, referring to (b) of FIG. 10B, the percentage of CD3+ CD4+ CD25+ Foxp3 T cells relative to lung-cancer cell line KLN205 due to PI3K inhibitor treatment is shown. Next, referring to (c) of FIG. 10B, the percentage of CD3+ TIL cells relative to the lung-cancer cell line KLN205 due to PI3K inhibitor treatment is shown. Next, referring to (d) of FIG. 10B, the percentage of MDSC cells relative to lung-cancer cell line KLN205 due to PI3K inhibitor treatment is shown.

[5] = test system: lung-cancer cell line LLC2; experiment: Anti-cancer effect (tumor size) in lung-cancer cell line LLC2; assay type: in vivo
Description: First, referring to FIG. 9A, the results of the anti-cancer effect in the lung-cancer cell line LLC2 due to PI3K inhibitor treatment are shown. […] However, when the PI3K inhibitor treatment is carried out, the tumor size is reduced compared to the control. More specifically, when the PI3K inhibitor BKM 120 treatment is carried out at 35 mpk, the tumor size on the 15th day is 300 to 350 mm^3. When BKM 120 treatment is carried out at 50 mpk, the tumor size on day 15 is found to be 90 to 100 mm^3.

Nc1cc(C(F)(F)F)c(-c2cc(N3CCOCC3)nc(N3CCOCC3)n2)cn1 [BKM 120, buparlisib]
GLUT1 expression level relative to control (GLUT1 [1]): 6 to 7 times
percentage of T cells expressing GLUT1 among all T cells (GLUT1 [1]): 60 to 70%
tumor size ([2]; 35 mpk, 15th day): 200 to 250 mm^3
tumor size ([2]; 50 mpk, day 15): 90 to 100 mm^3
AKT expression in iPI3K+/imTOR− group relative to iPI3K−/imTOR−, iPI3K−/imTOR+ and iPI3K+/imTOR+ groups (AKT): 1.5 to 2.3 times
GLUT1 expression in iPI3K+/imTOR− group relative to iPI3K−/imTOR−, iPI3K−/imTOR+ and iPI3K+/imTOR+ groups (GLUT1 [3]): 6 to 7 times
extracellular acidification rate versus control (T cells; phase 1, 1×10^5 T cells): higher
extracellular acidification rate versus control (T cells; phase 2, glucose injected): the difference between the extracellular acidification rates of the T cell group treated with PI3K inhibitor and the control increases
extracellular acidification rate versus control (T cells; phase 3, oligomycin injected (glycolysis capacity)): higher extracellular acidification rate than that of the control
extracellular acidification rate versus control (T cells; phase 4, 2-deoxy-D-glucose (2DG) injected (glucose reserve)): higher extracellular acidification rate than that in the control
average percentage of CD3+ CD4+ CD25+ Foxp3 T cells ([4]; 35 mpk): 17%
average percentage of CD3+ CD8+ T cells ([4]; 35 mpk): 39%
average percentage of MDSC cells ([4]; 35 mpk): 24%
distribution of the percentage of CD3+ CD4+ CD25+ Foxp3 T cells ([4]; 35 mpk): 13 to 24%
distribution of the percentage of CD3+ CD8+ T cells ([4]; 35 mpk): 35 to 49%
distribution of the percentage of MDSC cells ([4]; 35 mpk): 23 to 25%
percentage of CD3+ TIL cells on average ([4]; 35 mpk): 5%
average percentage of CD3+ CD4+ CD25+ Foxp3 T cells ([4]; 50 mpk): 15%
average percentage of CD3+ CD8+ T cells ([4]; 50 mpk): 41%
average percentage of MDSC cells ([4]; 50 mpk): 18%
distribution of the percentage of CD3+ CD4+ CD25+ Foxp3 T cells ([4]; 50 mpk): 12 to 17%
distribution of the percentage of CD3+ CD8+ T cells ([4]; 50 mpk): 32 to 50%
distribution of the percentage of MDSC cells ([4]; 50 mpk): 17 to 19%
percentage of CD3+ TIL cells on average ([4]; 50 mpk): 6%
tumor size ([5]; 35 mpk, 15th day): 300 to 350 mm^3
tumor size ([5]; 50 mpk, day 15): 90 to 100 mm^3
